According to PubChem BioAssay AID222 (DTP/NCI, 2004):
Where “and” joins values, the source holds several entries; their conditions need not be identical. Equal values may be shown once. Toxic doses and inconclusive results are not listed.

Test system: C57BL/6 mice, intracerebral ependymoblastoma, median survival T/C
Test: NCI In Vivo Anticancer Drug Screen. Data for tumor model Ependymoblastoma (intracerebral) in C57BL/6 mice
Conditions: endpoint: median survival time, higher = longer survival
Description: The antitumor activity of compounds was measured in mice bearing transplantable tumors. Survival or tumor size were measured and the results are expressed as the measurement made in the treated group (T) divided by the measurement made in the vehicle treated control group (C). The tumor model used in this assay is Ependymoblastoma (intracerebral) in C57BL/6 mice

[1] = dose: 1.0 mg/kg/injection, schedule: Q01DX005 (ip), vehicle: saline
[2] = dose: 2.0 mg/kg/injection, schedule: Q01DX005 (ip), vehicle: saline

**Q.** Which T/C (dose: 0.5 mg/kg/injection, schedule: Q01DX005 (ip), vehicle: Klucel (hydroxypropylcellulose) (HPC)) does the source give for O=C1c2ccccc2C(=O)c2c(NCCNCCO)ccc(NCCNCCO)c21 here?
**A.** 104 % of control and 110 % of control

**Q.** What about the T/C (dose: 0.5 mg/kg/injection, schedule: Q01DX005 (ip), vehicle: water) of the same compound?
**A.** 91 % of control and 103 % of control

**Q.** What about the T/C (dose: 1.0 mg/kg/injection, schedule: Q01DX005 (ip), vehicle: Klucel (hydroxypropylcellulose) (HPC)) of the same compound?
**A.** 102 % of control and 107 % of control

**Q.** And the T/C (dose: 1.0 mg/kg/injection, schedule: Q01DX005 (ip), vehicle: saline with Tween-80)?
**A.** 94 % of control

**Q.** And the T/C [1]?
**A.** 94 % of control

**Q.** And the T/C (dose: 1.0 mg/kg/injection, schedule: Q01DX005 (ip), vehicle: water)?
**A.** 105 % of control

**Q.** What about the T/C (dose: 1.0 mg/kg/injection, schedule: Q04DX003 (ip), vehicle: Klucel (hydroxypropylcellulose) (HPC)) of the same compound?
**A.** 113 % of control

**Q.** What about the T/C (dose: 1.0 mg/kg/injection, schedule: Q04DX003 (ip), vehicle: water) of the same compound?
**A.** 103 % of control

**Q.** And the T/C (dose: 2.0 mg/kg/injection, schedule: Q01DX005 (ip), vehicle: Klucel (hydroxypropylcellulose) (HPC))?
**A.** 97 % of control and 108 % of control

**Q.** And the T/C (dose: 2.0 mg/kg/injection, schedule: Q01DX005 (ip), vehicle: saline with Tween-80)?
**A.** 100 % of control

**Q.** And the T/C [2]?
**A.** 108 % of control

**Q.** And the T/C (dose: 2.0 mg/kg/injection, schedule: Q01DX005 (ip), vehicle: water)?
**A.** 94 % of control and 102 % of control

**Q.** And the T/C (dose: 2.0 mg/kg/injection, schedule: Q04DX003 (ip), vehicle: Klucel (hydroxypropylcellulose) (HPC))?
**A.** 103 % of control

**Q.** What about the T/C (dose: 2.0 mg/kg/injection, schedule: Q04DX003 (ip), vehicle: water) of the same compound?
**A.** 110 % of control

**Q.** And the T/C (dose: 4.0 mg/kg/injection, schedule: Q01DX001 (ip), vehicle: Klucel (hydroxypropylcellulose) (HPC))?
**A.** 87 % of control

**Q.** What about the T/C (dose: 4.0 mg/kg/injection, schedule: Q01DX001 (ip), vehicle: water) of the same compound?
**A.** 107 % of control

**Q.** And the T/C (dose: 4.0 mg/kg/injection, schedule: Q01DX005 (ip), vehicle: Klucel (hydroxypropylcellulose) (HPC))?
**A.** 98 % of control and 104 % of control

**Q.** And the T/C (dose: 4.0 mg/kg/injection, schedule: Q01DX005 (ip), vehicle: other)?
**A.** 105 % of control

**Q.** What about the T/C (dose: 4.0 mg/kg/injection, schedule: Q01DX005 (ip), vehicle: saline with Tween-80) of the same compound?
**A.** 104 % of control and 109 % of control

**Q.** What about the T/C (dose: 4.0 mg/kg/injection, schedule: Q01DX005 (ip), vehicle: saline) of the same compound?
**A.** 100 % of control

**Q.** What about the T/C (dose: 4.0 mg/kg/injection, schedule: Q01DX005 (ip), vehicle: water) of the same compound?
**A.** 98 % of control and 105 % of control

**Q.** And the T/C (dose: 4.0 mg/kg/injection, schedule: Q04DX003 (ip), vehicle: Klucel (hydroxypropylcellulose) (HPC))?
**A.** 104 % of control

**Q.** What about the T/C (dose: 4.0 mg/kg/injection, schedule: Q04DX003 (ip), vehicle: water) of the same compound?
**A.** 96 % of control

**Q.** And the T/C (dose: 8.0 mg/kg/injection, schedule: Q01DX001 (ip), vehicle: Klucel (hydroxypropylcellulose) (HPC))?
**A.** 95 % of control

**Q.** What about the T/C (dose: 8.0 mg/kg/injection, schedule: Q01DX001 (ip), vehicle: water) of the same compound?
**A.** 101 % of control

**Q.** And the T/C (dose: 8.0 mg/kg/injection, schedule: Q01DX005 (ip), vehicle: Klucel (hydroxypropylcellulose) (HPC))?
**A.** 104 % of control and 107 % of control

**Q.** What about the T/C (dose: 8.0 mg/kg/injection, schedule: Q01DX005 (ip), vehicle: other) of the same compound?
**A.** 110 % of control

**Q.** And the T/C (dose: 8.0 mg/kg/injection, schedule: Q01DX005 (ip), vehicle: saline with Tween-80)?
**A.** 115 % of control

**Q.** And the T/C (dose: 8.0 mg/kg/injection, schedule: Q01DX005 (ip), vehicle: water)?
**A.** 106 % of control and 108 % of control

**Q.** What about the T/C (dose: 8.0 mg/kg/injection, schedule: Q04DX003 (ip), vehicle: Klucel (hydroxypropylcellulose) (HPC)) of the same compound?
**A.** 108 % of control

**Q.** What about the T/C (dose: 8.0 mg/kg/injection, schedule: Q04DX003 (ip), vehicle: water) of the same compound?
**A.** 119 % of control

**Q.** What about the T/C (dose: 16.0 mg/kg/injection, schedule: Q01DX001 (ip), vehicle: Klucel (hydroxypropylcellulose) (HPC)) of the same compound?
**A.** 98 % of control

**Q.** And the T/C (dose: 16.0 mg/kg/injection, schedule: Q01DX001 (ip), vehicle: water)?
**A.** 107 % of control

**Q.** And the T/C (dose: 16.0 mg/kg/injection, schedule: Q01DX005 (ip), vehicle: Klucel (hydroxypropylcellulose) (HPC))?
**A.** 110 % of control and 112 % of control

**Q.** And the T/C (dose: 16.0 mg/kg/injection, schedule: Q01DX005 (ip), vehicle: water)?
**A.** 105 % of control

**Q.** And the T/C (dose: 16.0 mg/kg/injection, schedule: Q04DX003 (ip), vehicle: Klucel (hydroxypropylcellulose) (HPC))?
**A.** 109 % of control

**Q.** What about the T/C (dose: 16.0 mg/kg/injection, schedule: Q04DX003 (ip), vehicle: water) of the same compound?
**A.** 114 % of control

**Q.** What about the T/C (dose: 32.0 mg/kg/injection, schedule: Q01DX001 (ip), vehicle: Klucel (hydroxypropylcellulose) (HPC)) of the same compound?
**A.** 112 % of control

**Q.** What about the T/C (dose: 32.0 mg/kg/injection, schedule: Q01DX001 (ip), vehicle: water) of the same compound?
**A.** 112 % of control

**Q.** What about the T/C (dose: 32.0 mg/kg/injection, schedule: Q01DX005 (ip), vehicle: Klucel (hydroxypropylcellulose) (HPC)) of the same compound?
**A.** 93 % of control and 117 % of control

**Q.** What about the T/C (dose: 32.0 mg/kg/injection, schedule: Q04DX003 (ip), vehicle: Klucel (hydroxypropylcellulose) (HPC)) of the same compound?
**A.** 103 % of control

**Q.** And the T/C (dose: 32.0 mg/kg/injection, schedule: Q04DX003 (ip), vehicle: water)?
**A.** 109 % of control

**Q.** And the T/C (dose: 64.0 mg/kg/injection, schedule: Q01DX001 (ip), vehicle: Klucel (hydroxypropylcellulose) (HPC))?
**A.** 105 % of control

**Q.** What about the T/C (dose: 64.0 mg/kg/injection, schedule: Q01DX001 (ip), vehicle: water) of the same compound?
**A.** 115 % of control

**Q.** What about the T/C (dose: 64.0 mg/kg/injection, schedule: Q04DX003 (ip), vehicle: Klucel (hydroxypropylcellulose) (HPC)) of the same compound?
**A.** 99 % of control

**Q.** What about the T/C (dose: 128.0 mg/kg/injection, schedule: Q01DX001 (ip), vehicle: Klucel (hydroxypropylcellulose) (HPC)) of the same compound?
**A.** 98 % of control

**Q.** What about the T/C (dose: 256.0 mg/kg/injection, schedule: Q01DX001 (ip), vehicle: Klucel (hydroxypropylcellulose) (HPC)) of the same compound?
**A.** 104 % of control

**Q.** What does the source list for COc1cc([C@@H]2c3cc4c(cc3[C@@H](OC3OC5CO[C@@H](c6cccs6)OC5C(O)C3O)[C@H]3COC(=O)[C@H]23)OCO4)cc(OC)c1O (some centres not stated)?
**A.** T/C (dose: 0.06 mg/kg/injection, schedule: Q01DX005 (ip), vehicle: saline): 101 % of control; T/C (dose: 0.12 mg/kg/injection, schedule: Q01DX005 (ip), vehicle: saline): 95 % of control; T/C (dose: 0.25 mg/kg/injection, schedule: Q01DX005 (ip), vehicle: saline): 97 % of control; T/C (dose: 0.5 mg/kg/injection, schedule: Q01DX005 (ip), vehicle: saline): 99 % of control; T/C [1]: 104 % of control; T/C (dose: 1.0 mg/kg/injection, schedule: Q01DX005 (oral), vehicle: saline): 101 % of control; T/C [2]: 114 % of control; T/C (dose: 4.0 mg/kg/injection, schedule: Q01DX005 (oral), vehicle: saline): 104 % of control; T/C (dose: 8.0 mg/kg/injection, schedule: Q01DX005 (oral), vehicle: saline): 100 % of control; T/C (dose: 16.0 mg/kg/injection, schedule: Q01DX005 (oral), vehicle: saline): 95 % of control

**Q.** Which T/C (dose: 0.5 mg/kg/injection, schedule: Q01DX005 (ip), vehicle: saline + alcohol) does the source give for NC(=O)N(CCCl)N=O here?
**A.** 118 % of control

**Q.** And the T/C (dose: 2.0 mg/kg/injection, schedule: Q01DX005 (ip), vehicle: saline + alcohol)?
**A.** 276 % of control

**Q.** Which results are given for Nc1ccc(S(=O)(=O)c2ccc(N)cc2)cc1?
**A.** T/C (dose: 12.5 mg/kg/injection, schedule: Q01DX005 (ip), vehicle: saline with Tween-80): 108 % of control; T/C (dose: 25.0 mg/kg/injection, schedule: Q01DX005 (ip), vehicle: saline with Tween-80): 108 % of control; T/C (dose: 45.0 mg/kg/injection, schedule: Q01DX005 (ip), vehicle: saline with Tween-80): 98 % of control and 102 % of control; T/C (dose: 50.0 mg/kg/injection, schedule: Q01DX005 (ip), vehicle: saline with Tween-80): 87 % of control; T/C (dose: 90.0 mg/kg/injection, schedule: Q01DX005 (ip), vehicle: saline with Tween-80): 96 % of control and 98 % of control; T/C (dose: 100.0 mg/kg/injection, schedule: Q01DX005 (ip), vehicle: saline with Tween-80): 100 % of control; T/C (dose: 180.0 mg/kg/injection, schedule: Q01DX005 (ip), vehicle: saline with Tween-80): 101 % of control and 87 % of control; T/C (dose: 200.0 mg/kg/injection, schedule: Q01DX005 (ip), vehicle: saline with Tween-80): 86 % of control

**Q.** CCCN(C)C(=O)N(CCCl)N=O was tested. Which T/C (dose: 39.0 mg/kg/injection, schedule: Q01DX001 (ip), vehicle: other) did it give?
**A.** 182 % of control

**Q.** And the T/C (dose: 62.5 mg/kg/injection, schedule: Q01DX001 (ip), vehicle: other)?
**A.** 309 % of control

**Q.** And the T/C (dose: 78.0 mg/kg/injection, schedule: Q01DX001 (ip), vehicle: other)?
**A.** 227 % of control

**Q.** And the T/C (dose: 125.0 mg/kg/injection, schedule: Q01DX001 (ip), vehicle: other)?
**A.** 309 % of control

**Q.** What about the T/C (dose: 156.0 mg/kg/injection, schedule: Q01DX001 (ip), vehicle: other) of the same compound?
**A.** 308 % of control
